Data on 16 compounds can be found in paper PMC9166630, “SAR Probing of KX2-391 Provided Analogues With Juxtaposed Activity Profile Against Major Oncogenic Kinases” (Frontiers in Oncology, 2022).

As a reminder, the IC50 is the midpoint of a concentration-inhibition curve. The term melting point denotes the temperature, or range, at which the solid turns liquid.

For series [1], the system named is MCF7 (breast) cancer cells. Kind of series: SRB cytotoxicity assay, MCF7. The settings on record: maximum tested concentration 50 µM, read-out: IC50 ± SEM, MCF7. In kind it is cell-based, human. The method, then:
(§1) MCF7 (breast) or N87 (stomach) cancer cells were grown in Roswell Park Memorial Institute-1640 (RPMI-1640) medium (Thermo Fisher Scientific, Inc; Waltham, MA, USA), supplemented with 10% heat inactivated fetal bovine serum (FBS), 50 units/mL of penicillin and […] of streptomycin and maintained at 37°C in a humidified atmosphere containing 5% CO2. The cells were maintained as “monolayer culture” by serial subculturing.
(§2) Cytotoxicity was determined using Sulforhodamine B (SRB) method as previously described by Skehan et al. ([66]). Exponentially growing MCF7 and N87 cells were collected using 0.25% Trypsin-EDTA and were then seeded in 96-well plates at a density of 1000-2000 cells/well in 10% FBS and penicillin/streptomycin supplemented RPMI-1640 medium. After 24 h, cells were treated with different concentrations of test compounds and incubated for 72 h at 37°C in a humidified atmosphere containing 5% CO2. Next, the cells were fixed by adding trichloroacetic acid (TCA, 10% final conc. in wells) directly to the wells and incubated for 1 h at 4°C, then cells were washed with distilled water 5 times to remove excess TCA, media, serum proteins, and metabolites, followed by air drying. After that, the fixed cells were stained with 0.4% SRB dissolved in 1% acetic acid for 10 min at room temperature, and excess stain was removed by quickly rinsing with 1% acetic acid. The residual acetic acid was removed completely by air drying the plates for 24 h, and the dye was solubilized with Tris buffer (pH= 7.4, 10 mM) for 5 min on a shaker at 1600 rpm. The optical density (OD) of each well was measured spectrophotometrically at 564 nm with an ELISA microplate reader (ChroMate-4300, FL, USA). The IC50 values (concentration of drug resulting in 50% reduction in cell survival) were calculated according to the equation for Boltzman sigmoidal concentration–response curve using the nonlinear regression fitting models (Graph Pad, Prism Version 5).

Series [2] deals with HCT116 cell line. Kind of series: MTT anti-proliferative assay, HCT116. The series is classed as cell-based, human. The settings on record: maximum tested concentration 50 µM, read-out: IC50 ± SEM, HCT116. The procedure:
The test compounds were evaluated for anti-proliferative activity using the MTT viability assay against HCT116 cell line. Cells were seeded in triplicate in 96-well plates at a density of 10x 10^3 cells/mL in a total volume of 200 µL per well. 0.1% of DMSO was used as a vehicle control. Each well was treated with 2 µL test compounds, which had been pre-prepared as stock solutions in […] to furnish the concentration range of study, 0.1 µM to 50 µM, and re-incubated for a further 72 h at 37°C in a humidified atmosphere containing 5% CO2. The culture medium was then removed, and the cells were washed with 100 µL PBS and 100 µL MTT was added, to reach a final concentration of 1 mg/mL MTT. Cells were incubated for 3 h in darkness at 37°C. After that, MTT solution was removed and MTT was solubilized by adding […] DMSO. The cells were maintained at room temperature in darkness for 20 min to ensure thorough color diffusion before reading the absorbance using a microplate reader at 570 nm. All experiments were conducted in triplicates. Results were expressed as percentage viability relative to vehicle control (100%). Dose response curves were plotted and IC50 values (concentration of drug resulting in 50% reduction in cell survival) were obtained using the commercial software package Prism (GraphPad Software, Inc., La Jolla, CA, USA).
Background: Tetrazolium dyes change colour on reduction, which living cells bring about.

In series [3] the test system is N87 (stomach) cancer cells. Kind of series: SRB cytotoxicity assay, N87. The series is classed as cell-based. The settings on record: Homo sapiens, 72 h, maximum tested concentration 50 µM, read-out: IC50 ± SEM, N87. The method, then: as §1, §2
(The SRB assay estimates cell density from bound dye.)

Series [4] deals with MV4-11 leukemia cell line. Kind of series: CellTiter-Blue cell viability assay, MV4-11. The series is classed as cell-based. To be noted: Homo sapiens. The method, then: (§3) HL60, K562, MV4-11 and NB4 were purchased from CLS Cell Line Service GmbH (Eppelheim, Germany). All cell lines were cultured in RPMI-1640 medium supplemented with 10% fetal bovine serum (FBS) (Thermo Fisher Scientific) and 0.1% ciprofloxacin (2.5mg/ml; Cipla Limited; Mumbai, India), and were maintained at 37°C in the presence of 21% O2 and 5% CO2.
(§4) Cell viability was determined using the CellTiter®-Blue Cell Viability Assay kit (Promega, Madison, WI, USA). Approximately 10^4 cells were counted and plated in a 96-well plate in the presence of test compounds ranging from 0.01 to 10 or 20 µM in triplicate and were incubated for 48 h at 37°C in a humidified incubator. After the incubation period was complete, 20 µL of CellTiter®-Blue Cell Viability Assay reagent was added to each well and incubated for additional 2 h for the development of florescence. Florescence was measured at Ex/Em 540/590 on SpectraMax® i3 Multi-Mode microplate reader (Molecular Devices, LLC; San Jose, CA, USA) and plotted against drug concentration to determine the IC50 of the test compounds. The IC50 was obtained by non-linear regression model using GraphPad Prism 6.07 (GraphPad Software, Inc, USA).
In general terms: The colour change of resazurin is a common sign of viable cells or microbes.

Series [5] deals with K562 leukemia cell line. Kind of series: CellTiter-Blue cell viability assay, K562. The series is classed as cell-based. To be noted: Homo sapiens. The procedure:
as §3, §4

Series [6] concerns HL60 leukemia cell line. Kind of series: CellTiter-Blue cell viability assay, HL60. The series is classed as cell-based. The settings on record: Homo sapiens, HL-60. The procedure:
as §3, §4

The test system of series [7] is NB4 leukemia cell line. Kind of series: CellTiter-Blue cell viability assay, NB4. To be noted: Homo sapiens. The series is classed as cell-based, human. The method, then:
as §3, §4

Where [8] appears, read: CellTiter-Blue, 48 h, maximum tested concentration 20 µM, read-out: IC50 ± SEM, MV4-11.
The mark [9] stands for this setting: CellTiter-Blue, 48 h, maximum tested concentration 20 µM, read-out: IC50 ± SEM, K562.
Where [10] appears, read: CellTiter-Blue, 48 h, maximum tested concentration 20 µM, read-out: IC50 ± SEM, HL60.
[11] abbreviates: 48 h, CellTiter-Blue, 48 h, maximum tested concentration 20 µM, read-out: IC50 ± SEM, NB4.

Each structure is given as a SMILES string. Where two headings read alike, the source gives them in different places. Some results are limits rather than exact numbers.

`Nc1ccc(CC(=O)NCc2ccccc2)cc1` [Compound 3a, 2-(4-aminophenyl)-N-benzylacetamide]: the melting point is 140 to 141 °C. In addition, the half-inhibitory concentration (IC50) in series [1] (72 h) is above 50 µM. Further, the IC50 in series [1] (Homo sapiens, MCF7, 72 h) was above 100 µM. Besides, the concentration for half-maximal inhibition (IC50) in series [2] (72 h) is above 50 µM. The 50% inhibitory concentration (IC50) in series [2] (Homo sapiens, HCT-116, 72 h) is above 100 µM. In addition, in series [3], the concentration for half-maximal inhibition (IC50) is above 50 µM.
As to `CC(=O)Nc1ccc(CC(=O)NCc2ccccc2)cc1` [Compound 4a, 2-(4-acetamidophenyl)-N-benzylacetamide], the 50% inhibitory concentration (IC50) in series [1] (72 h) is 29.3 ± 4.64 µM; in series [1] (Homo sapiens, MCF7, 72 h), 29.3 µM; in series [2] (72 h), 18.8 ± 3.06 µM; in series [2] (Homo sapiens, HCT-116, 72 h) it was 18.8 µM; in series [3] it was above 50 µM.
`O=C(Cc1ccc(NC(=O)c2ccc(Cl)cc2)cc1)NCc1ccccc1` [Compound 4f, N-(4-(2-(benzylamino)-2-oxoethyl)phenyl)-4-chlorobenzamide]: the melting point turned out to be 190 °C. In addition, the half-maximal inhibitory concentration (IC50) in series [1] (Homo sapiens, MCF7, 72 h) is above 50 µM. Moreover, the 50% inhibitory concentration (IC50) in series [3] was 48.3 ± 7.44 µM.
Turning to `Cc1ccc(S(=O)(=O)Nc2ccc(CC(=O)NCc3ccccc3)cc2)cc1` [Compound 4g, N-benzyl-2-(4-((4-methylphenyl)sulfonamido)phenyl)acetamide], the melting point came out at 140 °C. In addition, the half-maximal inhibitory concentration (IC50) in series [1] (Homo sapiens, MCF7, 72 h) is above 50 µM. Moreover, the half-inhibitory concentration (IC50) in series [2] (Homo sapiens, HCT-116, 72 h) is above 50 µM. Moreover, the IC50 in series [4] (setting [8]) was above 20 µM. For the same compound, in series [5] (setting [9]), the concentration for half-maximal inhibition (IC50) was above 20 µM. Besides, the IC50 in series [6] (setting [10]) is above 20 µM.
For the compound `COc1cccc(C(=O)Nc2ccc(CC(=O)NCc3ccccc3)cc2)c1` [Compound 4h, N-(4-(2-(benzylamino)-2-oxoethyl)phenyl)-3-methoxybenzamide], the half-maximal inhibitory concentration (IC50) in series [4] (setting [8]) was 2.4 ± 0.49 µM; in series [5] (setting [9]), 4.23 ± 2.44 µM; in series [6] (setting [10]) it was 3.27 ± 0.15 µM; in series [7] (setting [11]), 1.96 ± 1.33 µM.
For `O=C(Cc1ccc(NC(=O)c2cccc(OCCN3CCOCC3)c2)cc1)NCc1ccccc1` [Compound 4i, N-(4-(2-(benzylamino)-2-oxoethyl)phenyl)-3-(2-morpholinoethoxy)benzamide] the same measures were 16.3 ± 4.43 µM, 17.4 ± 2.63 µM, above 20 µM and above 20 µM.
`COc1ccc(C(=O)Nc2ccc(CC(=O)NCc3ccccc3)cc2)cc1Cl` [Compound 4j, N-(4-(2-(benzylamino)-2-oxoethyl)phenyl)-3-chloro-4-methoxybenzamide] had a melting point of 186 °C. Moreover, the IC50 in series [4] (setting [8]) amounted to 20 ± 0.16 µM. Further, the IC50 in series [5] (setting [9]) came to 13.04 ± 0.04 µM. The IC50 in series [6] (setting [10]) was above 20 µM. Besides, the IC50 in series [7] (setting [11]) is 5.33 ± 1.43 µM.
For `COc1ccc(C(=O)Nc2ccc(CC(=O)NCc3ccccc3)cc2)cc1OC` [Compound 4k, N-(4-(2-(benzylamino)-2-oxoethyl)phenyl)-3,4-dimethoxybenzamide] the same measures were 215 °C, 7.95 ± 0.31 µM, above 20 µM, above 20 µM and 9.88 ± 2.8 µM.
Compound `O=C(Cc1ccc(NC(=O)c2ccc(OCCN3CCOCC3)c(Cl)c2)cc1)NCc1ccccc1` [Compound 4l, N-(4-(2-(benzylamino)-2-oxoethyl)phenyl)-3-chloro-4-(2-morpholinoethoxy) benzamide] registered a melting point of 147 °C. Also, the IC50 in series [4] (setting [8]) stood at 18.85 ± 0.12 µM. Further, the IC50 in series [5] (setting [9]) amounted to 12.96 ± 0.08 µM. Besides, the IC50 in series [6] (setting [10]) was above 20 µM. Further, the concentration for half-maximal inhibition (IC50) in series [7] (setting [11]) amounted to 8.77 ± 1.75 µM.
Turning to `O=C(Cc1ccc(NC(=O)c2ccnc(Cl)c2)cc1)NCc1ccccc1` [Compound 4m, N-(4-(2-(benzylamino)-2-oxoethyl)phenyl)-2-chloroisonicotinamide], the half-inhibitory concentration (IC50) in series [4] (setting [8]) was 6.33 ± 4.24 µM; in series [5] (setting [9]), 12.4 ± 1.39 µM; in series [6] (setting [10]), above 20 µM; in series [7] (setting [11]), 3.46 ± 0.06 µM.
In turn, `O=C(Cc1ccc(NC(=O)c2cncc(Cl)c2)cc1)NCc1ccccc1` [Compound 4o, N-(4-(2-(benzylamino)-2-oxoethyl)phenyl)-5-chloronicotinamide] yielded a melting point of 231 °C. Further, in series [4] (setting [8]), the IC50 is above 20 µM. Also, the IC50 in series [5] (setting [9]) is above 20 µM. In series [6] (setting [10]), the IC50 is above 20 µM. In series [7] (setting [11]), the half-inhibitory concentration (IC50) was determined as 5.89 ± 1.11 µM.
On to `O=C(Cc1ccc(NC(=O)c2ccc(Cl)o2)cc1)NCc1ccccc1` [Compound 4p, N-(4-(2-(benzylamino)-2-oxoethyl)phenyl)-5-chlorofuran-2-carboxamide], for which the melting point is 217 °C. Besides, in series [4] (setting [8]), the IC50 was above 20 µM. In addition, the IC50 in series [5] (setting [9]) is above 20 µM. Moreover, in series [6] (setting [10]), the half-inhibitory concentration (IC50) is above 20 µM. In series [7] (setting [11]), the IC50 is above 20 µM.
As to `O=C(Cc1ccc(NC(=O)c2cccc(Cl)c2)cc1)NCCc1ccccc1` [Compound 4q, 3-Chloro-N-(4-(2-oxo-2-(phenethylamino)ethyl)phenyl)benzamide], the melting point was 160 °C. The IC50 in series [4] (setting [8]) is above 20 µM. For the same compound, the half-maximal inhibitory concentration (IC50) in series [5] (setting [9]) is above 20 µM. Also, the IC50 in series [6] (setting [10]) was above 20 µM.
The compound `O=C(Cc1ccc(NC(=O)c2cccc(Cl)c2)cc1)NCc1ccco1` [Compound 4r, 3-Chloro-N-(4-(2-((furan-2-ylmethyl)amino)-2-oxoethyl)phenyl)benzamide] registered a melting point of 206 °C. In series [4] (setting [8]), the concentration for half-maximal inhibition (IC50) was above 20 µM. The IC50 in series [5] (setting [9]) was above 20 µM. Further, the IC50 in series [6] (setting [10]) was above 20 µM.
With `O=C(Cc1ccc(NC(=O)c2cccc(Cl)c2)cn1)NCc1ccccc1` [Compound 4s, N-(6-(2-(benzylamino)-2-oxoethyl)pyridin-3-yl)-3-chlorobenzamide], the IC50 in series [4] (setting [8]) came to 2.87 ± 0.3 µM; in series [5] (setting [9]), 4 ± 1.5 µM; in series [6] (setting [10]), 6.24 ± 3.3 µM; in series [7] (setting [11]), 1.74 ± 0.16 µM.
As to `O=C(Cc1ccc(-c2ccc(OCCN3CCOCC3)cc2)cn1)NCc1ccccc1` [KX2-391, Tirbanibulin], the IC50 turned out to be 0.00419 µM in series [4] (positive reference for validation, read-out: IC50, MV411); 0.0145 µM in series [5] (positive reference for validation, read-out: IC50, K562); 0.0121 µM in series [6] (positive reference for validation, read-out: IC50, HL60); 0.0033 µM in series [7] (positive reference for validation, read-out: IC50, NB4).
